From the NIST ThermoML archive (doi:10.1016/j.fluid.2008.09.004)
± gives the expanded uncertainty stated by the source.

Tests used:
[1] = excess molar enthalpy (molar enthalpy of mixing); xn = mol fraction of the nth substance listed; settings: 303.15 K, 101 kPa, Liquid, Calvet calorimetry
[2] = xn = mol fraction of the nth substance listed; settings: 101 kPa, Liquid, Vibrating tube method

Work on `CCn1cc[n+](C)c1.O=S(=O)([O-])C(F)(F)F` [1-ethyl-3-methylimidazolium trifluoromethanesulfonate] + CCO yielded an excess molar enthalpy ([1]; x1 = 0.5006) of 0.424 ± 0.0335 kcal/mol, an excess molar enthalpy ([1]; x1 = 0.6176) of 0.363 ± 0.0287 kcal/mol and an excess molar enthalpy ([1]; x1 = 0.7501) of 0.26 ± 0.0208 kcal/mol. For the same molecule, the excess molar enthalpy ([1]; x1 = 0.869) was 0.143 ± 0.0115 kcal/mol, the mass density ([2]; 293.15 K, x1 = 0.0523) was 883.9 ± 0.4 kg/m3 and the mass density ([2]; 293.15 K, x1 = 0.1) was 953 ± 0.3 kg/m3. It also gave a mass density ([2]; 293.15 K, x1 = 0.1959) of 1059.7 ± 0.3 kg/m3, a mass density ([2]; 293.15 K, x1 = 0.2927) of 1138.5 ± 0.3 kg/m3 and a mass density ([2]; 293.15 K, x1 = 0.3819) of 1194.5 ± 0.3 kg/m3. It also gave a mass density ([2]; 293.15 K, x1 = 0.4917) of 1248.4 ± 0.3 kg/m3, a mass density ([2]; 293.15 K, x1 = 0.5983) of 1289.4 ± 0.3 kg/m3 and a mass density ([2]; 293.15 K, x1 = 0.6899) of 1318.8 ± 0.3 kg/m3. It also gave a mass density ([2]; 293.15 K, x1 = 0.7829) of 1343.7 ± 0.3 kg/m3, a mass density ([2]; 293.15 K, x1 = 0.8784) of 1365.6 ± 0.3 kg/m3 and a mass density ([2]; 298.15 K, x1 = 0.0523) of 879.6 ± 0.4 kg/m3. It also gave a mass density ([2]; 298.15 K, x1 = 0.1) of 948.7 ± 0.3 kg/m3, a mass density ([2]; 298.15 K, x1 = 0.1959) of 1055.4 ± 0.3 kg/m3 and a mass density ([2]; 298.15 K, x1 = 0.2927) of 1134.1 ± 0.3 kg/m3. It also gave a mass density ([2]; 298.15 K, x1 = 0.3819) of 1190.2 ± 0.3 kg/m3, a mass density ([2]; 298.15 K, x1 = 0.4917) of 1244.1 ± 0.3 kg/m3 and a mass density ([2]; 298.15 K, x1 = 0.5983) of 1285.1 ± 0.3 kg/m3. For the same molecule, the mass density ([2]; 298.15 K, x1 = 0.6899) was 1314.5 ± 0.3 kg/m3, the mass density ([2]; 298.15 K, x1 = 0.7829) was 1339.4 ± 0.3 kg/m3 and the mass density ([2]; 298.15 K, x1 = 0.8784) was 1361.4 ± 0.3 kg/m3. The mass density ([2]; 303.15 K, x1 = 0.0523) was 875.3 ± 0.4 kg/m3, the mass density ([2]; 303.15 K, x1 = 0.1) was 944.4 ± 0.3 kg/m3 and the mass density ([2]; 303.15 K, x1 = 0.1959) was 1051.1 ± 0.3 kg/m3. The mass density ([2]; 303.15 K, x1 = 0.2927) was 1129.8 ± 0.3 kg/m3, the mass density ([2]; 303.15 K, x1 = 0.3819) was 1185.9 ± 0.3 kg/m3 and the mass density ([2]; 303.15 K, x1 = 0.4917) was 1239.9 ± 0.3 kg/m3. It also gave a mass density ([2]; 303.15 K, x1 = 0.5983) of 1280.9 ± 0.3 kg/m3, a mass density ([2]; 303.15 K, x1 = 0.6899) of 1310.3 ± 0.3 kg/m3 and a mass density ([2]; 303.15 K, x1 = 0.7829) of 1335.2 ± 0.3 kg/m3. For the same molecule, the mass density ([2]; 303.15 K, x1 = 0.8784) was 1357.2 ± 0.3 kg/m3, the mass density ([2]; 308.15 K, x1 = 0.0523) was 871 ± 0.4 kg/m3 and the mass density ([2]; 308.15 K, x1 = 0.1) was 940.2 ± 0.3 kg/m3. For the same molecule, the mass density ([2]; 308.15 K, x1 = 0.1959) was 1046.8 ± 0.3 kg/m3, the mass density ([2]; 308.15 K, x1 = 0.2927) was 1125.6 ± 0.3 kg/m3 and the mass density ([2]; 308.15 K, x1 = 0.3819) was 1181.6 ± 0.3 kg/m3. For the same molecule, the mass density ([2]; 308.15 K, x1 = 0.4917) was 1235.6 ± 0.3 kg/m3, the mass density ([2]; 308.15 K, x1 = 0.5983) was 1276.7 ± 0.3 kg/m3 and the mass density ([2]; 308.15 K, x1 = 0.6899) was 1306.1 ± 0.3 kg/m3. It also gave a mass density ([2]; 308.15 K, x1 = 0.7829) of 1331 ± 0.3 kg/m3, a mass density ([2]; 308.15 K, x1 = 0.8784) of 1353 ± 0.3 kg/m3 and a mass density ([2]; 313.15 K, x1 = 0.0523) of 866.7 ± 0.4 kg/m3. It also gave a mass density ([2]; 313.15 K, x1 = 0.1) of 935.8 ± 0.3 kg/m3, a mass density ([2]; 313.15 K, x1 = 0.1959) of 1042.5 ± 0.3 kg/m3 and a mass density ([2]; 313.15 K, x1 = 0.2927) of 1121.3 ± 0.3 kg/m3. It also gave a mass density ([2]; 313.15 K, x1 = 0.3819) of 1177.3 ± 0.3 kg/m3, a mass density ([2]; 313.15 K, x1 = 0.4917) of 1231.4 ± 0.3 kg/m3 and a mass density ([2]; 313.15 K, x1 = 0.5983) of 1272.4 ± 0.3 kg/m3. The mass density ([2]; 313.15 K, x1 = 0.6899) was 1301.9 ± 0.3 kg/m3, the mass density ([2]; 313.15 K, x1 = 0.7829) was 1326.8 ± 0.3 kg/m3 and the mass density ([2]; 313.15 K, x1 = 0.8784) was 1348.8 ± 0.3 kg/m3. It also gave a mass density ([2]; 318.15 K, x1 = 0.0523) of 862.2 ± 0.4 kg/m3, a mass density ([2]; 318.15 K, x1 = 0.1) of 931.4 ± 0.3 kg/m3 and a mass density ([2]; 318.15 K, x1 = 0.1959) of 1038.1 ± 0.3 kg/m3. For the same molecule, the mass density ([2]; 318.15 K, x1 = 0.2927) was 1116.9 ± 0.3 kg/m3, the mass density ([2]; 318.15 K, x1 = 0.3819) was 1173 ± 0.3 kg/m3 and the mass density ([2]; 318.15 K, x1 = 0.4917) was 1227.1 ± 0.3 kg/m3. For the same molecule, the mass density ([2]; 318.15 K, x1 = 0.5983) was 1268.2 ± 0.3 kg/m3, the mass density ([2]; 318.15 K, x1 = 0.6899) was 1297.7 ± 0.3 kg/m3 and the mass density ([2]; 318.15 K, x1 = 0.7829) was 1322.6 ± 0.3 kg/m3. For the same molecule, the mass density ([2]; 318.15 K, x1 = 0.8784) was 1344.7 ± 0.3 kg/m3.
